According to patent publication US12606528B2, “Methods and materials for inhibiting NF-kB activity” (University of Pittsburgh - Of the Commonwealth System of …, priority 2019, dated 2026):
Like-named read-outs stand apart in the source and are kept apart here.

Legend:
[1] = tested on: TNF release; experiment: TNF assay: TNF release from LPS-stimulated human PBMCs (TNF ELISA); type: cell-based; details: PBMC, read-out: IC50 (TNF assay)
In short: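 TNF ELISA on supernatants read-out; cells were 10k human PBMCs/well given LPS at 10 ng/mL for 18 h after a 2 h compound pre-incubation across a concentration series, with IC50 derived for suppression of TNF secretion.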

[2] = tested on: NF-κB; experiment: NF-κB assay: THP1-NF-κB-LUC cells, LPS-stimulated secreted luciferase; type: cell-based; details: THP1-NF-κB-LUC cells, read-out: IC50 (NF-κB assay)
In short: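 THP1-NF-κB-LUC cells (25k/well) were pretreated with compounds for 2 h, then stimulated with LPS (10 ng/mL) for 18 h. Secreted luciferase was measured and normalized to vehicle, and IC50 was fitted from the concentration series.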

[3] = human PBMCs, compounds 2 hours before LPS (10 ng/ml) for 18 hours, supernatant TNF ELISA
[4] = compounds 2 hours before LPS (10 ng/mL) for 18 hours, secreted luciferase
[5] = LPS-stimulated human PBMCs, TNF ELISA

IC50 [1, 3]	IC50 [2, 4]	IC50 [1, 5]	IC50 ([2]; LPS-stimulated)	Compound
> 10 µM	< 0.1 µM			COc1ccc(NS(=O)(=O)c2cc(S(C)(=O)=O)cc3c2OCC(=O)N3)cc1 [BC19485]
> 10 µM	< 0.1 µM			Cc1ccc(NS(=O)(=O)c2cc(S(C)(=O)=O)cc3c2OCC(=O)N3)cc1Cl [BC19486]
> 10 µM	0.1 to 1 µM			CCc1cccc(NS(=O)(=O)c2cc(S(C)(=O)=O)cc3c2OCC(=O)N3)c1 [BC19487]
> 10 µM	< 0.1 µM			Cc1ccc(NS(=O)(=O)c2cc(S(C)(=O)=O)cc3c2OCC(=O)N3)cc1 [BC19488]
> 10 µM	< 0.1 µM			Cc1c(Cl)cc2c(c1S(=O)(=O)Nc1ccc(F)c(F)c1)OCC(=O)N2 [BC19489]
> 10 µM	< 0.1 µM			Cc1c(Cl)cc2c(c1S(=O)(=O)Nc1ccc(OC(F)(F)F)cc1)OCC(=O)N2 [BC19490]
> 10 µM	< 0.1 µM			CCS(=O)(=O)c1cc2c(c(S(=O)(=O)Nc3ccc(Cl)cc3)c1)OCC(=O)N2 [BC19491]
> 10 µM	< 0.1 µM			CCc1ccc(NS(=O)(=O)c2cc(S(=O)(=O)CC)cc3c2OCC(=O)N3)cc1 [BC19492]
> 10 µM	< 0.1 µM			CCS(=O)(=O)c1cc2c(c(S(=O)(=O)Nc3ccc(C(C)C)cc3)c1)OCC(=O)N2 [BC19493]
		> 10 µM	0.1 to 1 µM	COCC(=O)N1CCC(C(=O)Cc2ccc3nc(-c4ccc(F)cc4)c(-c4ccc(F)cc4)nc3n2)CC1 [BC19494]
		> 10 µM	0.1 to 1 µM	N#Cc1cnc2nc(-c3ccc(F)cc3)c(-c3ccc(F)cc3)nc2c1 [BC19495]
		> 10 µM	< 0.1 µM	Cn1cnnc1-c1cnc2nc(-c3ccc(F)cc3)c(-c3ccc(F)cc3)nc2c1 [BC19496]
		> 10 µM	< 0.1 µM	O=C(NCCN1CCOCC1)c1ccc2nc(-c3ccc(Cl)cc3)c(-c3ccc(Cl)cc3)nc2c1 [BC19497]
		> 10 µM	> 10 µM	CN1CCN(C(=O)c2ccc3nc(-c4cccc(N(C)C)c4)c(-c4cccc(N(C)C)c4)nc3c2)CC1 [BC19498]
		> 10 µM	1 to 10 µM	C#CCNC(=O)c1ccc2nc(-c3cccc(N(C)C)c3)c(-c3cccc(N(C)C)c3)nc2c1 [BC19499]
		> 10 µM	> 10 µM	CN(C)c1cccc(-c2nc3ccc(C(=O)O)cc3nc2-c2cccc(N(C)C)c2)c1 [BC19500]
		> 10 µM	> 10 µM	CN(C)c1cccc(-c2nc3ccc(C(=O)NCCN4CCOCC4)cc3nc2-c2cccc(N(C)C)c2)c1 [BC19501]
		> 10 µM	> 10 µM	CN(C)c1cccc(-c2nc3ccc(C(=O)NCCO)cc3nc2-c2cccc(N(C)C)c2)c1 [BC19502]
		1 to 10 µM	1 to 10 µM	O=C(NCCN1CCOCC1)c1ccc2nc(-c3ccc(OC(F)(F)F)cc3)c(-c3ccc(OC(F)(F)F)cc3)nc2c1 [BC19503]
		> 10 µM	0.1 to 1 µM	O=S(=O)(NCCN1CCOCC1)c1ccc2nc(-c3ccc(F)cc3)c(-c3ccc(F)cc3)nc2c1 [BC19504]
		> 10 µM	0.1 to 1 µM	O=S(=O)(NC1CC1)c1ccc2nc(-c3ccc(F)cc3)c(-c3ccc(F)cc3)nc2c1 [BC19505]
		> 10 µM	0.1 to 1 µM	O=S(=O)(NCC1CC1)c1ccc2nc(-c3ccc(F)cc3)c(-c3ccc(F)cc3)nc2c1 [BC19506]

IC50 [1, 3]	IC50 [2, 4]	IC50 [1, 5]	IC50 ([2]; LPS-stimulated)	Compound
		> 10 µM	< 0.1 µM	COCCNS(=O)(=O)c1ccc2nc(-c3ccc(F)cc3)c(-c3ccc(F)cc3)nc2c1 [BC19507]
		1 to 10 µM	0.1 to 1 µM	O=S(=O)(CCCCN1CCOCC1)c1ccc2nc(-c3ccc(F)cc3)c(-c3ccc(F)cc3)nc2c1 [BC19508]
		> 10 µM	< 0.1 µM	O=S(=O)(NCCCO)c1ccc2nc(-c3ccc(F)cc3)c(-c3ccc(F)cc3)nc2c1 [BC19509]
		> 10 µM	0.1 to 1 µM	CN1CCN(c2ccc3nc(-c4ccc(F)cc4)c(-c4ccc(F)cc4)nc3c2)CC1 [BC19510]
		> 10 µM	< 0.1 µM	CC(=O)N1CCN(c2ccc3nc(-c4ccc(F)cc4)c(-c4ccc(F)cc4)nc3c2)CC1 [BC19511]
		> 10 µM	0.1 to 1 µM	N#Cc1ccc2nc(-c3ccc(F)cc3)c(-c3ccc(F)cc3)nc2n1 [BC19512]
		> 10 µM	< 0.1 µM	O=C(c1ccc2nc(-c3ccc(F)cc3)c(-c3ccc(F)cc3)nc2c1)N1CCN(CCO)CC1 [BC19513]
		1 to 10 µM	0.1 to 1 µM	O=C(c1ccc2nc(-c3ccc(F)cc3)c(-c3ccc(F)cc3)nc2c1)N1CCN(CCOCCO)CC1 [BC19514]
> 10 µM	> 10 µM			O=c1[nH]ccc2cc([S+]([O-])c3ccc(Cl)cc3)ccc12 (stereo not shown) [BC19515]
> 10 µM	> 10 µM			O=c1[nH]ccc2cc(S(=O)(=O)c3ccc(Cl)cc3)ccc12 [BC19516]
> 10 µM	> 10 µM			Cc1ccc([S+]([O-])c2ccc3c(=O)[nH]ccc3c2)cc1 (stereo not shown) [BC19517]
> 10 µM	> 10 µM			Cc1ccc(S(=O)(=O)c2ccc3c(=O)[nH]ccc3c2)cc1 [BC19518]
> 10 µM	> 10 µM			O=c1[nH]ccc2cc([S+]([O-])c3cccc(F)c3)ccc12 (stereo not shown) [BC19519]
> 10 µM	> 10 µM			O=c1[nH]ccc2cc(S(=O)(=O)c3cccc(F)c3)ccc12 [BC19520]
		0.1 to 1 µM	< 0.1 µM	CCCS(=O)(=O)c1oc(-c2ccccc2)nc1S(=O)(=O)c1ccc(Cl)cc1 [BC19521]
		> 10 µM	1 to 10 µM	CS(=O)(=O)c1[nH]c(-c2ccccc2)nc1S(=O)(=O)c1ccc(F)cc1 [BC19522]
		> 10 µM	1 to 10 µM	CC(C)[S+]([O-])c1[nH]c(-c2ccccc2)nc1S(=O)(=O)c1ccc(F)cc1 (stereo not shown) [BC19523]
		> 10 µM	> 10 µM	COCC[S+]([O-])c1[nH]c(-c2ccccc2)nc1S(=O)(=O)c1ccc(F)cc1 (stereo not shown) [BC19524]
		1 to 10 µM	1 to 10 µM	O=S(=O)(CC1CC1)c1sc(-c2ccccc2)nc1S(=O)(=O)c1ccc(Cl)cc1 [BC19525]
		1 to 10 µM	1 to 10 µM	COCC[S+]([O-])c1sc(-c2ccccc2)nc1S(=O)(=O)c1ccc(Cl)cc1 (stereo not shown) [BC19526]
		1 to 10 µM	1 to 10 µM	COCCS(=O)(=O)c1sc(-c2cccc(F)c2)nc1S(=O)(=O)c1ccc(Cl)cc1 [BC19527]
		0.1 to 1 µM	1 to 10 µM	C[S+]([O-])c1sc(-c2ccc(Cl)cc2)nc1S(=O)(=O)c1ccc(Cl)cc1 (stereo not shown) [BC19528]

IC50 [1, 3]	IC50 [2, 4]	IC50 [1, 5]	IC50 ([2]; LPS-stimulated)	Compound
		1 to 10 µM	> 10 µM	CC(C)CS(=O)(=O)c1sc(-c2ccc(Cl)cc2)nc1S(=O)(=O)c1ccc(Cl)cc1 [BC19529]
		1 to 10 µM	1 to 10 µM	O=S(=O)(CC1CC1)c1sc(-c2ccc(Cl)cc2)nc1S(=O)(=O)c1ccc(Cl)cc1 [BC19530]
		0.1 to 1 µM	1 to 10 µM	CCC[S+]([O-])c1sc(-c2cccc(F)c2)nc1S(=O)(=O)c1ccc(Cl)cc1 (stereo not shown) [BC19531]
		> 10 µM	> 10 µM	O=S(=O)(c1ccc(Cl)cc1)c1nc(-c2cccc(F)c2)sc1[S+]([O-])C1CCCCC1 (stereo not shown) [BC19532]
		1 to 10 µM	1 to 10 µM	CCC[S+]([O-])c1sc(-c2ccc(Cl)cc2)nc1S(=O)(=O)c1ccc(Cl)cc1 (stereo not shown) [BC19533]
		1 to 10 µM	1 to 10 µM	CS(=O)(=O)c1sc(-c2ccc(Cl)cc2)nc1S(=O)(=O)c1ccc(F)cc1 [BC19534]
		1 to 10 µM	1 to 10 µM	CCC[S+]([O-])c1sc(-c2ccc(Cl)cc2)nc1S(=O)(=O)c1ccc(F)cc1 (stereo not shown) [BC19535]
		0.1 to 1 µM	1 to 10 µM	CCCS(=O)(=O)c1sc(-c2ccc(Cl)cc2)nc1S(=O)(=O)c1ccc(F)cc1 [BC19536]
		> 10 µM	> 10 µM	CC(C)[S+]([O-])c1sc(-c2ccc(Cl)cc2)nc1S(=O)(=O)c1ccc(F)cc1 (stereo not shown) [BC19537]
		1 to 10 µM	1 to 10 µM	CC(C)S(=O)(=O)c1sc(-c2ccc(Cl)cc2)nc1S(=O)(=O)c1ccc(F)cc1 [BC19538]
		1 to 10 µM	1 to 10 µM	O=S(=O)(CC1CC1)c1sc(-c2ccc(Cl)cc2)nc1S(=O)(=O)c1ccc(F)cc1 [BC19539]
		1 to 10 µM	1 to 10 µM	COCC[S+]([O-])c1sc(-c2ccc(Cl)cc2)nc1S(=O)(=O)c1ccc(F)cc1 (stereo not shown) [BC19540]
		1 to 10 µM	1 to 10 µM	COCCS(=O)(=O)c1sc(-c2ccc(Cl)cc2)nc1S(=O)(=O)c1ccc(F)cc1 [BC19541]
		> 10 µM	> 10 µM	O=S1(=O)CCn2c(-c3ccccc3)nc(S(=O)(=O)c3ccc(F)cc3)c21 [BC19542]
		< 0.1 µM	0.1 to 1 µM	Cc1ccc(S(=O)(=O)c2nc(S(=O)(=O)C(C)C)sc2S(=O)(=O)C(C)C)cc1 [BC19543]
> 10 µM	< 0.1 µM			CCS(=O)(=O)c1cc2c(c(S(=O)(=O)Nc3ccc(C)c(Cl)c3)c1)OCC(=O)N2 [BC19544]
> 10 µM	< 0.1 µM			CCS(=O)(=O)c1cc2c(c(S(=O)(=O)Nc3ccc(F)cc3F)c1)OCC(=O)N2 [BC19545]
> 10 µM	< 0.1 µM			CCS(=O)(=O)c1cc2c(c(S(=O)(=O)Nc3ccc(C)cc3)c1)OCC(=O)N2 [BC19546]
> 10 µM	0.1 to 1 µM			CCS(=O)(=O)c1cc2c(c(S(=O)(=O)Nc3ccc(OC)c(Cl)c3)c1)OCC(=O)N2 [BC19547]
> 10 µM	< 0.1 µM			CCS(=O)(=O)c1cc2c(c(S(=O)(=O)Nc3ccc(C#N)cc3)c1)OCC(=O)N2 [BC19548]
		> 10 µM	1 to 10 µM	O=C1NCCOc2c1cc(Br)cc2S(=O)(=O)Nc1ccc(F)cc1 [BC19549]
